Assay results from PMC4467398, “Preclinical antitumor activity of ST7612AA1: a new oral thiol-based histone deacetylase (HDAC) inhibitor” (Oncotarget, 2014).

Test system: DOHH2 and TMD8 DLBCL cells
Assay: Gene expression profiling (HumanHT-12 v4 BeadChip, limma), ST7612AA1 300 nM 8 hrs vs DMSO
Format: cell-based, human
Details: 300 nM 8 hrs vs DMSO

## CC(=O)SCCCCC[C@H](NC(=O)[C@H]1CCC(=O)N1)C(=O)Nc1ccccc1 [ST7612AA1]
  log ratio ESAM (probe ILMN_1668092): 7.54E-01
  log ratio EVI2A (ILMN_1733579): -1.21E+00
  log ratio EXOSC8 (ILMN_1756162): -8.59E-01
  log ratio EXTL2 (ILMN_2388425): 6.00E-01
  log ratio F11R (probe ILMN_2342033): 8.81E-01
  log ratio FAIM (ILMN_1690101): -1.08E+00
  log ratio FAIM (ILMN_2351548): -9.70E-01
  log ratio FAM49A (ILMN_1794038): 6.23E-01
  log ratio FAM65A (probe ILMN_1680037): 7.70E-01
  log ratio FAM108A2 (ILMN_3178529): 6.40E-01
  log ratio FAM110A (ILMN_2323944): 6.14E-01
  log ratio FAM116B (probe ILMN_1659029): 7.74E-01
  log ratio FAM120B (probe ILMN_1679641): 7.62E-01
  log ratio FAM136A (ILMN_1655307): -1.26E+00
  log ratio FAM136B (ILMN_3241756): -7.94E-01
  log ratio FAM149B1 (probe ILMN_3245452): 7.21E-01
  log ratio FAM160B1 (ILMN_3231638): -6.11E-01
  log ratio FAM164A (ILMN_1789558): 6.20E-01
  log ratio FAM167A (probe ILMN_3248511): 7.13E-01
  log ratio FBXO15 (ILMN_1755281): 6.57E-01
  log ratio FBXO18 (probe ILMN_1729430): 7.97E-01
  log ratio FCGRT (probe ILMN_1705302): 6.92E-01
  log ratio FCHSD2 (ILMN_1815734): -6.17E-01
  log ratio FERMT3 (ILMN_2366330): -1.23E+00
  log ratio FGD2 (probe ILMN_2115005): 7.14E-01
  log ratio FGF9 (probe ILMN_1762531): 7.84E-01
  log ratio FHL1 (probe ILMN_1805842): 7.76E-01
  log ratio FKBP11 (ILMN_1787345): -9.71E-01
  log ratio FLJ22795 (probe ILMN_2150802): 8.56E-01
  log ratio FNBP1 (ILMN_1797342): 6.67E-01
  log ratio FOXC1 (probe ILMN_1738401): 8.63E-01
  log ratio FOXO1 (probe ILMN_1738816): 8.61E-01
  log ratio FOXO4 (probe ILMN_1712095): 6.93E-01
  log ratio FSD1 (probe ILMN_1813490): 7.25E-01
  log ratio FUCA1 (probe ILMN_1752728): 8.57E-01
  log ratio FVT1 (ILMN_2154052): 6.36E-01
  log ratio FXYD5 (ILMN_2309848): 6.27E-01
  log ratio G6PD (probe ILMN_1697559): 6.93E-01
  log ratio GABARAPL2 (probe ILMN_1796458): 7.62E-01
  log ratio GAMT (probe ILMN_1756469): 8.74E-01
  log ratio GAPT (ILMN_1675191): -1.10E+00
  log ratio GAPT (ILMN_3242271): -1.08E+00
  log ratio GAR1 (ILMN_2412549): -9.54E-01
  log ratio GAR1 (ILMN_3263329): -9.36E-01
  log ratio GATM (probe ILMN_1729180): 7.75E-01
  log ratio GATS (ILMN_1699631): 6.00E-01
  log ratio GBE1 (ILMN_1789702): -8.91E-01
  log ratio GCDH (ILMN_2296843): 6.56E-01
  log ratio GCH1 (probe ILMN_1812759): 7.11E-01
  log ratio GINS3 (ILMN_1754272): -8.17E-01
  log ratio GM2A (ILMN_2221046): 5.90E-01
  log ratio GMEB2 (ILMN_1683204): -5.99E-01
  log ratio GNG11 (ILMN_1782419): 6.02E-01
  log ratio GOLGB1 (probe ILMN_1747935): 7.13E-01
  log ratio GPATCH4 (ILMN_2383305): -1.16E+00
  log ratio GPATCH4 (ILMN_2383306): -1.12E+00
  log ratio GPER (ILMN_1795298): -1.70E+00
  log ratio GPER (ILMN_2384056): -1.82E+00
  log ratio GPT2 (probe ILMN_1684158): 8.12E-01
  log ratio GPX4 (ILMN_1734353): 6.05E-01
  log ratio GPX7 (ILMN_1726030): -1.08E+00
  log ratio GRB2 (ILMN_1748797): 6.01E-01
  log ratio GRN (probe ILMN_1724250): 8.24E-01
  log ratio GRWD1 (ILMN_1742166): -6.02E-01
  log ratio GSDMB (ILMN_2347193): 6.61E-01
  log ratio GSTO1 (ILMN_2227573): -6.01E-01
  log ratio GTF2B (ILMN_1737857): 6.21E-01
  log ratio GTF2I (ILMN_1673917): -1.01E+00
  log ratio GTF2IRD2B (ILMN_1680501): -1.15E+00
  log ratio GTF3C2 (ILMN_1746457): -7.85E-01
  log ratio GTF3C6 (ILMN_1691578): -1.19E+00
  log ratio GTPBP6 (ILMN_1776080): -8.00E-01
  log ratio HABP4 (ILMN_1792384): 5.90E-01
  log ratio HABP4 (probe ILMN_2107991): 7.82E-01
  log ratio HAGH (probe ILMN_1772731): 8.84E-01
  log ratio HCFC1 (ILMN_1732705): -1.50E+00
  log ratio HDDC2 (ILMN_1753745): -8.45E-01
  log ratio HDGF (ILMN_1765621): -8.47E-01
  log ratio HERC1 (probe ILMN_1786211): 7.40E-01
  log ratio HERC6 (ILMN_1654639): -6.08E-01
  log ratio HERPUD1 (probe ILMN_2374159): 8.50E-01
  log ratio HEY1 (probe ILMN_1788203): 8.91E-01
  log ratio HEY2 (probe ILMN_1682034): 7.56E-01
  log ratio HIST1H1C (probe ILMN_1757406): 8.24E-01
  log ratio HIST2H2AA3 (probe ILMN_2144426): 8.03E-01
  log ratio HK2 (ILMN_1723486): -1.09E+00
  log ratio HLA-DOA (ILMN_1659075): 6.55E-01
  log ratio HLA-DPA1 (probe ILMN_1772218): 8.12E-01
  log ratio HLA-DQA1 (probe ILMN_1808405): 8.25E-01
  log ratio HLA-DRB4 (probe ILMN_1752592): 7.27E-01
  log ratio HLA-DRB6 (ILMN_2066066): 5.94E-01
  log ratio HLA-E (probe ILMN_1765258): 8.07E-01
  log ratio HLTF (ILMN_1798588): 6.54E-01
  log ratio HLTF (probe ILMN_1673820): 7.48E-01
  log ratio HNRNPR (ILMN_3177285): -5.97E-01
  log ratio HNRPH3 (ILMN_1654920): -7.98E-01
  log ratio HNRPLL (ILMN_1791575): 6.20E-01
  log ratio HOOK2 (probe ILMN_1682147): 7.36E-01
  log ratio HPSE (ILMN_1779547): 5.94E-01
  log ratio HSD17B8 (ILMN_1715324): 6.72E-01
  log ratio HSPA1B (probe ILMN_1660436): 7.16E-01
  log ratio HSPC111 (ILMN_1704055): -1.16E+00
  log ratio ID1 (probe ILMN_1664861): 7.75E-01
  log ratio IFFO1 (probe ILMN_2348268): 8.07E-01
  log ratio IFI16 (ILMN_1710937): -9.06E-01
  log ratio IFI35 (ILMN_1745374): -8.00E-01
  log ratio IFRD2 (ILMN_1742031): -7.99E-01
  log ratio IGSF3 (probe ILMN_1704353): 8.50E-01
  log ratio INTS10 (ILMN_1679483): -8.21E-01
  log ratio IRAK1 (ILMN_2379130): -1.37E+00
  log ratio IRAK2 (ILMN_1745964): 6.17E-01
  log ratio ISG20L1 (ILMN_1814282): -8.55E-01
  log ratio ISOC2 (ILMN_1769158): -9.83E-01
  log ratio ITFG2 (ILMN_1701244): -8.71E-01
  log ratio ITFG3 (ILMN_1810055): 6.64E-01
  log ratio ITGA4 (ILMN_1747052): -6.00E-01
  log ratio ITGB1 (ILMN_1723467): 6.32E-01
  log ratio ITGB1 (ILMN_2383934): 6.80E-01
  log ratio ITGB1 (probe ILMN_1714820): 7.06E-01
  log ratio ITPKA (probe ILMN_1776516): 7.10E-01
  log ratio JAK1 (probe ILMN_1793384): 7.91E-01
  log ratio KAT2A (ILMN_1782247): -6.02E-01
  log ratio KBTBD2 (ILMN_1784540): -6.12E-01
  log ratio KEAP1 (ILMN_2410771): -8.88E-01
  log ratio KEAP1 (ILMN_2410772): -9.23E-01
  log ratio KIAA0020 (ILMN_1665483): -7.91E-01
  log ratio KIAA0368 (ILMN_1847822): -1.24E+00
  log ratio KIAA1602 (ILMN_1763640): 6.30E-01
  log ratio KIF3B (ILMN_1702279): 6.21E-01
  log ratio KIFC2 (ILMN_1803018): 6.72E-01
  log ratio KLF9 (ILMN_1778523): 6.77E-01
  log ratio KLHDC5 (ILMN_1727134): -1.09E+00
  log ratio KLHL5 (probe ILMN_1706687): 8.05E-01
  log ratio KLRAQ1 (probe ILMN_3271092): 7.11E-01
  log ratio KPNB1 (ILMN_1703949): -1.01E+00
  log ratio L3MBTL2 (ILMN_3307786): -8.52E-01
  log ratio LAMC1 (ILMN_1810852): 6.63E-01
  log ratio LANCL2 (ILMN_1708009): -8.15E-01
  log ratio LARP1B (ILMN_1733390): -7.84E-01
  log ratio LASS2 (ILMN_1726108): -7.85E-01
  log ratio LASS2 (ILMN_2400500): -9.26E-01
  log ratio LCMT1 (probe ILMN_1688452): 7.21E-01
  log ratio LCMT1 (probe ILMN_2336186): 7.52E-01
  log ratio LIN9 (ILMN_2137084): -6.10E-01
  log ratio LMNA (probe ILMN_1737394): 7.98E-01
  log ratio LOC151162 (probe ILMN_3238058): 7.72E-01
  log ratio LOC205251 (ILMN_1693685): -6.17E-01
  log ratio LOC253039 (probe ILMN_3236498): 8.10E-01
  log ratio LOC283683 (probe ILMN_1659327): 8.30E-01
  log ratio LOC285176 (ILMN_1694327): -5.99E-01
